According to ChEMBL document CHEMBL3885881, “DrugMatrix”:

Species on record: Rattus norvegicus
Assay: DrugMatrix - Regimen: Daily Repeat
Format: toxicity, organism-based, Sprague-Dawley
Set-up: regimen Daily Repeat, gender Male, age 6-8 weeks
Settings: in vivo, po, route oral GAVAGE, vehicle .5 % CMC; for ABSOLUTE BASOPHIL / ABSOLUTE EOSINOPHIL / ABSOLUTE LYMPHOCYTE / ABSOLUTE MONOCYTE / ABSOLUTE SEGMENTED NEUTROPHIL / BASOPHIL / EOSINOPHIL / ERYTHROCYTE COUNT / HEMATOCRIT / HEMOGLOBIN / LEUKOCYTE COUNT / LYMPHOCYTE / MEAN CORPUSCULAR HEMOGLOBIN / MEAN CORPUSCULAR HEMOGLOBIN CONCENTRATION / MEAN CORPUSCULAR VOLUME / MONOCYTE / NEUTROPHIL / NUCLEATED RED BLOOD CELLS / PLATELET COUNT: tissue Blood; for ALANINE AMINOTRANSFERASE / ALBUMIN / ALKALINE PHOSPHATASE / ASPARTATE AMINOTRANSFERASE / BLOOD UREA NITROGEN / CARBON DIOXIDE / CHLORIDE / CHOLESTEROL / CREATINE PHOSPHOKINASE / CREATININE / GLUCOSE / LACTATE DEHYDROGENASE / LIPASE / PHOSPHORUS / POTASSIUM / SODIUM / TOTAL BILIRUBIN / TOTAL PROTEIN / URIC ACID: tissue Plasma
[1] = 0 mg/kg, 72 h, dose level Control, time 3 day
[2] = 0 mg/kg, 120 h, dose level Control, time 5 day
[3] = 50 mg/kg, 72 h, dose level Low, time 3 day

With `CC(/C=C1\SC(=S)N(CC(=O)O)C1=O)=C\c1ccccc1` the “ABSOLUTE BASOPHIL” value [1] was 0 CELLS/uL, the “ABSOLUTE EOSINOPHIL” value [1] was 0 CELLS/uL and the “ABSOLUTE LYMPHOCYTE” value [1] was 12191.17 CELLS/uL. For the same molecule, the “ABSOLUTE MONOCYTE” value [1] was 183.17 CELLS/uL, the “ABSOLUTE SEGMENTED NEUTROPHIL” value [1] was 1192.33 CELLS/uL and the BASOPHIL [1] was 0%. The EOSINOPHIL [1] was 0%, the “ERYTHROCYTE COUNT” value [1] was 5.51 x10E6/uL and the HEMATOCRIT [1] was 35.45%. The HEMOGLOBIN [1] was 13.82 G/DL, the “LEUKOCYTE COUNT” value [1] was 13.57 x10E3/uL and the LYMPHOCYTE [1] was 89.83%. For the same molecule, the “MEAN CORPUSCULAR HEMOGLOBIN” value [1] was 25.1 pg, the “MEAN CORPUSCULAR HEMOGLOBIN CONCENTRATION” value [1] was 38.98 G/DL and the “MEAN CORPUSCULAR VOLUME” value [1] was 64.42 fL. The MONOCYTE [1] was 1.33%, the NEUTROPHIL [1] was 8.83% and the “NUCLEATED RED BLOOD CELLS” value [1] was 0 /100WBC. For the same molecule, the “PLATELET COUNT” value [1] was 1118.17 x10E3/uL, the “ALANINE AMINOTRANSFERASE” value [1] was 55 u/L and the ALBUMIN [1] was 4.15 G/DL. The “ALKALINE PHOSPHATASE” value [1] was 449.5 u/L, the “ASPARTATE AMINOTRANSFERASE” value [1] was 112.83 u/L and the “BLOOD UREA NITROGEN” value [1] was 17.33 mg/dL. The “CARBON DIOXIDE” value [1] was 29.5 mmol/L, the CHLORIDE [1] was 101 MEQ/L and the CHOLESTEROL [1] was 70 mg/dL. For the same molecule, the “CREATINE PHOSPHOKINASE” value [1] was 1325.83 u/L, the CREATININE [1] was 0.18 mg/dL and the GLUCOSE [1] was 171.5 mg/dL. For the same molecule, the “LACTATE DEHYDROGENASE” value [1] was 386 u/L, the LIPASE [1] was 10 u/L and the PHOSPHORUS [1] was 11.57 mg/dL. For the same molecule, the POTASSIUM [1] was 6.21 MEQ/L, the SODIUM [1] was 141.65 MEQ/L and the “TOTAL BILIRUBIN” value [1] was 0.15 mg/dL. For the same molecule, the “TOTAL PROTEIN” value [1] was 5.75 G/DL, the “URIC ACID” value [1] was 1.28 mg/dL and the “ABSOLUTE BASOPHIL” value [2] was 0 CELLS/uL. The “ABSOLUTE EOSINOPHIL” value [2] was 138.17 CELLS/uL, the “ABSOLUTE LYMPHOCYTE” value [2] was 13283.17 CELLS/uL and the “ABSOLUTE MONOCYTE” value [2] was 303.83 CELLS/uL. For the same molecule, the “ABSOLUTE SEGMENTED NEUTROPHIL” value [2] was 1308.17 CELLS/uL, the BASOPHIL [2] was 0% and the EOSINOPHIL [2] was 1%. For the same molecule, the “ERYTHROCYTE COUNT” value [2] was 5.32 x10E6/uL, the HEMATOCRIT [2] was 33.8% and the HEMOGLOBIN [2] was 13.63 G/DL. The “LEUKOCYTE COUNT” value [2] was 15.03 x10E3/uL, the LYMPHOCYTE [2] was 88.33% and the “MEAN CORPUSCULAR HEMOGLOBIN” value [2] was 25.68 pg. The “MEAN CORPUSCULAR HEMOGLOBIN CONCENTRATION” value [2] was 40.35 G/DL, the “MEAN CORPUSCULAR VOLUME” value [2] was 63.67 fL and the MONOCYTE [2] was 1.83%. The NEUTROPHIL [2] was 8.83%, the “NUCLEATED RED BLOOD CELLS” value [2] was 0 /100WBC and the “PLATELET COUNT” value [2] was 1097.5 x10E3/uL. For the same molecule, the “ALANINE AMINOTRANSFERASE” value [2] was 54.5 u/L, the ALBUMIN [2] was 4.27 G/DL and the “ALKALINE PHOSPHATASE” value [2] was 337 u/L. For the same molecule, the “ASPARTATE AMINOTRANSFERASE” value [2] was 94.67 u/L, the “BLOOD UREA NITROGEN” value [2] was 17 mg/dL and the “CARBON DIOXIDE” value [2] was 28.33 mmol/L. The CHLORIDE [2] was 101.5 MEQ/L, the CHOLESTEROL [2] was 71.33 mg/dL and the “CREATINE PHOSPHOKINASE” value [2] was 628.17 u/L. For the same molecule, the CREATININE [2] was 0.19 mg/dL, the GLUCOSE [2] was 177.83 mg/dL and the “LACTATE DEHYDROGENASE” value [2] was 500.5 u/L. It also gave an LIPASE [2] of 9.5 u/L, a PHOSPHORUS [2] of 12.3 mg/dL and a POTASSIUM [2] of 5.63 MEQ/L. For the same molecule, the SODIUM [2] was 143.03 MEQ/L, the “TOTAL BILIRUBIN” value [2] was 0.2 mg/dL and the “TOTAL PROTEIN” value [2] was 6.02 G/DL. The “URIC ACID” value [2] was 1.5 mg/dL, the “ABSOLUTE BASOPHIL” value [3] was 0 CELLS/uL and the “ABSOLUTE EOSINOPHIL” value [3] was 0 CELLS/uL. The “ABSOLUTE LYMPHOCYTE” value [3] was 10745.33 CELLS/uL, the “ABSOLUTE MONOCYTE” value [3] was 122.33 CELLS/uL and the “ABSOLUTE SEGMENTED NEUTROPHIL” value [3] was 899 CELLS/uL. For the same molecule, the BASOPHIL [3] was 0%, the EOSINOPHIL [3] was 0% and the “ERYTHROCYTE COUNT” value [3] was 5.12 x10E6/uL. The HEMATOCRIT [3] was 32.47%, the HEMOGLOBIN [3] was 13.07 G/DL and the “LEUKOCYTE COUNT” value [3] was 11.77 x10E3/uL. The LYMPHOCYTE [3] was 91.33%, the “MEAN CORPUSCULAR HEMOGLOBIN” value [3] was 25.57 pg and the “MEAN CORPUSCULAR HEMOGLOBIN CONCENTRATION” value [3] was 40.23 G/DL. The “MEAN CORPUSCULAR VOLUME” value [3] was 63.67 fL, the MONOCYTE [3] was 1% and the NEUTROPHIL [3] was 7.67%. For the same molecule, the “NUCLEATED RED BLOOD CELLS” value [3] was 0.33 /100WBC, the “PLATELET COUNT” value [3] was 1123 x10E3/uL and the “ALANINE AMINOTRANSFERASE” value [3] was 53.67 u/L. For the same molecule, the ALBUMIN [3] was 4.27 G/DL, the “ALKALINE PHOSPHATASE” value [3] was 336 u/L and the “ASPARTATE AMINOTRANSFERASE” value [3] was 85.33 u/L. For the same molecule, the “BLOOD UREA NITROGEN” value [3] was 16 mg/dL, the “CARBON DIOXIDE” value [3] was 27.33 mmol/L and the CHLORIDE [3] was 101.67 MEQ/L. For the same molecule, the CHOLESTEROL [3] was 75.67 mg/dL, the “CREATINE PHOSPHOKINASE” value [3] was 291.33 u/L and the CREATININE [3] was 0.17 mg/dL. The GLUCOSE [3] was 165.67 mg/dL, the “LACTATE DEHYDROGENASE” value [3] was 165.67 u/L and the LIPASE [3] was 9.33 u/L. For the same molecule, the PHOSPHORUS [3] was 12.33 mg/dL, the POTASSIUM [3] was 6.32 MEQ/L and the SODIUM [3] was 143.7 MEQ/L. The “TOTAL BILIRUBIN” value [3] was 0.1 mg/dL, the “TOTAL PROTEIN” value [3] was 5.77 G/DL and the “URIC ACID” value [3] was 2.2 mg/dL.
